How the values were obtained:
Format in all cases: in vivo
Set-up in all cases: key: 0 is no effect; 10 is complete control
[1] = tested on: bamyardgrass (Echinochloa crus-galli); experiment: Test B flood test; conditions: for Plant response rating, Barnyardgrass: Postemergence (flood test species)
How it was run: (§1)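 Read-out is a visual response score from 0 (no effect) to 10 (complete control), assigned by comparison with untreated controls. Treatment was applied at the 2-leaf stage, and plants stayed in the greenhouse for twelve to sixteen days before scoring.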

[2] = tested on: rice (Oryza sativa); experiment: Test B flood test; conditions: for Plant response rating, Rice: Postemergence (flood test species)
How it was run: as §1

[3] = tested on: duck salad (Heteranthera limosa); experiment: Test B flood test; conditions: for Plant response rating, Ducksalad: Postemergence (flood test species)
How it was run: as §1

[4] = tested on: smallflower flatsedge (Cyperus difformis); experiment: Test B flood test; conditions: for Plant response rating, S. Flatsedge: Postemergence (flood test species)
How it was run: as §1

[5] = tested on: rape (Brassica napus); experiment: Test B pre-/postemergence
How it was run: (§2)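 Compounds in a surfactant-containing, non-phytotoxic solvent blend are applied to freshly planted seed (preemergence) and, concurrently, to seedlings of 2 to 18 cm at 1–4 leaves (postemergence). Plants stay in the greenhouse twelve to sixteen days and are then scored visually from 0 (no effect) to 10 (complete control).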

[6] = tested on: velvetleaf (Abutilon theophrasti); experiment: Test B pre-/postemergence
How it was run: as §2

[7] = tested on: corn (Zea mays); experiment: Test B pre-/postemergence
How it was run: as §2

[8] = tested on: sugar beet (Beta vulgaris); experiment: Test B pre-/postemergence
How it was run: as §2

[9] = tested on: soybean (Glycine max); experiment: Test B pre-/postemergence
How it was run: as §2

[10] = tested on: crabgrass (Digitaria sanguinalis); experiment: Test B pre-/postemergence
How it was run: as §2

[11] = tested on: wheat (Triticum aestivum); experiment: Test B pre-/postemergence
How it was run: as §2

[12] = tested on: blackgrass (Alopecurus myosuroides); experiment: Test B pre-/postemergence
How it was run: as §2

[13] = tested on: cocklebur (Xanthium strumarium); experiment: Test B pre-/postemergence
How it was run: as §2

[14] = tested on: purple nutsedge (Cyperus rotundus); experiment: Test B pre-/postemergence
How it was run: as §2

[15] = tested on: pigweed (Amaranthus retroflexus); experiment: Test B pre-/postemergence
How it was run: as §2

[16] = Rate 62 g/ha, Postemergence (flood test)
[17] = Rate 125 g/ha, Postemergence section (flood test species)
[18] = Preemergence, Rate 62 g/ha, scale of 0 to 10

Cc1cnc(-c2ccc(C(F)(F)F)cc2)nc1Cn1cc(Br)cn1 [Compound 54]
Barnyardgrass plant response rating [1, 16]: 2
Barnyardgrass plant response rating [1, 17]: 3
Plant response rating, Barnyardgrass ([1]; Rate 250 g/ha): 3
Plant response rating, Barnyardgrass ([1]; Rate 500 g/ha): 4
Rice plant response rating [2, 16]: 1
Rice plant response rating [2, 17]: 2
Plant response rating, Rice ([2]; Rate 250 g/ha): 3
Plant response rating, Rice ([2]; Rate 500 g/ha): 4
Ducksalad plant response rating [3, 16]: 0
Ducksalad plant response rating [3, 17]: 0
Plant response rating, Ducksalad ([3]; Rate 250 g/ha): 1
Plant response rating, Ducksalad ([3]; Rate 500 g/ha): 3
S. Flatsedge plant response rating [4, 16]: 6
S. Flatsedge plant response rating [4, 17]: 8
Plant response rating, S. Flatsedge ([4]; Rate 250 g/ha): 9
Plant response rating, S. Flatsedge ([4]; Rate 500 g/ha): 9
Plant response rating, Rape [5, 18]: 0
Rape plant response rating ([5]; Rate 62 g/ha, Postemergence): 7
Rape plant response rating ([5]; Rate 125 g/ha, Postemergence): 8
Plant response rating, Rape ([5]; Rate 125 g/ha, Preemergence): 0
Plant response rating, Rape ([5]; Rate 250 g/ha, Postemergence): 9
Plant response rating, Rape ([5]; Rate 250 g/ha, Preemergence): 3
Plant response rating, Rape ([5]; Rate 500 g/ha, Postemergence): 9
Plant response rating, Rape ([5]; Rate 500 g/ha, Preemergence): 3
Plant response rating, Velvetleaf [6, 18]: 0
Velvetleaf plant response rating ([6]; Rate 62 g/ha, Postemergence): 2
Velvetleaf plant response rating ([6]; Rate 125 g/ha, Postemergence): 2
Plant response rating, Velvetleaf ([6]; Rate 125 g/ha, Preemergence): 0
Plant response rating, Velvetleaf ([6]; Rate 250 g/ha, Postemergence): 3
Plant response rating, Velvetleaf ([6]; Rate 250 g/ha, Preemergence): 1
Plant response rating, Velvetleaf ([6]; Rate 500 g/ha, Postemergence): 3
Plant response rating, Velvetleaf ([6]; Rate 500 g/ha, Preemergence): 1
Plant response rating, Corn [7, 18]: 0
Corn plant response rating ([7]; Rate 62 g/ha, Postemergence): 2
Corn plant response rating ([7]; Rate 125 g/ha, Postemergence): 2
Plant response rating, Corn ([7]; Rate 125 g/ha, Preemergence): 0
Plant response rating, Corn ([7]; Rate 250 g/ha, Postemergence): 3
Plant response rating, Corn ([7]; Rate 250 g/ha, Preemergence): 1
Plant response rating, Corn ([7]; Rate 500 g/ha, Postemergence): 3
Plant response rating, Corn ([7]; Rate 500 g/ha, Preemergence): 1
Plant response rating, Sugarbeets [8, 18]: 0
Sugarbeets plant response rating ([8]; Rate 62 g/ha, Postemergence): 6
Sugarbeets plant response rating ([8]; Rate 125 g/ha, Postemergence): 7
Plant response rating, Sugarbeets ([8]; Rate 125 g/ha, Preemergence): 1
Plant response rating, Sugarbeets ([8]; Rate 250 g/ha, Postemergence): 9
Plant response rating, Sugarbeets ([8]; Rate 250 g/ha, Preemergence): 7
Plant response rating, Sugarbeets ([8]; Rate 500 g/ha, Postemergence): 9
Plant response rating, Sugarbeets ([8]; Rate 500 g/ha, Preemergence): 9
Plant response rating, Soybean [9, 18]: 0
Soybean plant response rating ([9]; Rate 62 g/ha, Postemergence): 0
Soybean plant response rating ([9]; Rate 125 g/ha, Postemergence): 3
Plant response rating, Soybean ([9]; Rate 125 g/ha, Preemergence): 0
Plant response rating, Soybean ([9]; Rate 250 g/ha, Postemergence): 4
Plant response rating, Soybean ([9]; Rate 250 g/ha, Preemergence): 0
Plant response rating, Soybean ([9]; Rate 500 g/ha, Postemergence): 4
Plant response rating, Soybean ([9]; Rate 500 g/ha, Preemergence): 0
Plant response rating, Crabgrass [10, 18]: 0
Crabgrass plant response rating ([10]; Rate 62 g/ha, Postemergence): 2
Crabgrass plant response rating ([10]; Rate 125 g/ha, Postemergence): 4
Plant response rating, Crabgrass ([10]; Rate 125 g/ha, Preemergence): 0
Plant response rating, Crabgrass ([10]; Rate 250 g/ha, Postemergence): 5
Plant response rating, Crabgrass ([10]; Rate 250 g/ha, Preemergence): 3
Plant response rating, Crabgrass ([10]; Rate 500 g/ha, Postemergence): 5
Plant response rating, Crabgrass ([10]; Rate 500 g/ha, Preemergence): 8
Plant response rating, Wheat [11, 18]: 0
Wheat plant response rating ([11]; Rate 62 g/ha, Postemergence): 0
Wheat plant response rating ([11]; Rate 125 g/ha, Postemergence): 2
Plant response rating, Wheat ([11]; Rate 125 g/ha, Preemergence): 0
Plant response rating, Wheat ([11]; Rate 250 g/ha, Postemergence): 2
Plant response rating, Wheat ([11]; Rate 250 g/ha, Preemergence): 0
Plant response rating, Wheat ([11]; Rate 500 g/ha, Postemergence): 2
Plant response rating, Wheat ([11]; Rate 500 g/ha, Preemergence): 1
Plant response rating, Blackgrass [12, 18]: 0
Blackgrass plant response rating ([12]; Rate 62 g/ha, Postemergence): 1
Blackgrass plant response rating ([12]; Rate 125 g/ha, Postemergence): 1
Plant response rating, Blackgrass ([12]; Rate 125 g/ha, Preemergence): 1
Plant response rating, Blackgrass ([12]; Rate 250 g/ha, Postemergence): 2
Plant response rating, Blackgrass ([12]; Rate 250 g/ha, Preemergence): 3
Plant response rating, Blackgrass ([12]; Rate 500 g/ha, Postemergence): 3
Plant response rating, Blackgrass ([12]; Rate 500 g/ha, Preemergence): 4
Cocklebur plant response rating ([13]; Rate 62 g/ha, Postemergence): 3
Cocklebur plant response rating ([13]; Rate 125 g/ha, Postemergence): 3
Plant response rating, Cocklebur ([13]; Rate 125 g/ha, Preemergence): 0
Plant response rating, Cocklebur ([13]; Rate 250 g/ha, Postemergence): 7
Plant response rating, Cocklebur ([13]; Rate 250 g/ha, Preemergence): 0
Plant response rating, Cocklebur ([13]; Rate 500 g/ha, Postemergence): 9
Plant response rating, Cocklebur ([13]; Rate 500 g/ha, Preemergence): 0
Plant response rating, Nutsedge [14, 18]: 0
Nutsedge plant response rating ([14]; Rate 62 g/ha, Postemergence): 0
Nutsedge plant response rating ([14]; Rate 125 g/ha, Postemergence): 0
Plant response rating, Nutsedge ([14]; Rate 125 g/ha, Preemergence): 0
Plant response rating, Nutsedge ([14]; Rate 250 g/ha, Postemergence): 0
Plant response rating, Nutsedge ([14]; Rate 250 g/ha, Preemergence): 0
Plant response rating, Nutsedge ([14]; Rate 500 g/ha, Postemergence): 0
Plant response rating, Nutsedge ([14]; Rate 500 g/ha, Preemergence): 0
Plant response rating, Redroot pigweed [15, 18]: 1
Redroot pigweed plant response rating ([15]; Rate 62 g/ha, Postemergence): 4
Redroot pigweed plant response rating ([15]; Rate 125 g/ha, Postemergence): 5
Plant response rating, Redroot pigweed ([15]; Rate 125 g/ha, Preemergence): 2
Plant response rating, Redroot pigweed ([15]; Rate 250 g/ha, Postemergence): 6
Plant response rating, Redroot pigweed ([15]; Rate 250 g/ha, Preemergence): 7
Plant response rating, Redroot pigweed ([15]; Rate 500 g/ha, Postemergence): 7
Plant response rating, Redroot pigweed ([15]; Rate 500 g/ha, Preemergence): 9
